{"source": "patent US20240207650A1", "about": "“ULTRASOUND-INDUCED MICROBUBBLE DRUG DELIVERY SYSTEM LOADING STABILIZED HYDROPHOBIC DRUG WITH POLYETHYLENE GLYCOL BASED NONIONIC SURFACTANT AND METHOD OF MANUFACTURING THE SAME” (SAHMYOOK UNIVERSITY INDUSTRY-ACADEMIC COOPERATION FOUNDATION, priority 2022, published 2024)", "system": "U87MG cells", "assay": "Cytotoxic experiment, cell viability with tetrazolium salt derivatives", "type": "cell-based", "details": "72 hours, free drug 0.01-100 μM, FIG. 5", "procedure": "An experiment is performed to identify cytotoxicity of the manufactured microbubble drug delivery system and the drug delivery system loading the drugs. The experiment is performed after an experimental group manufactured by using the method in Example 1-2 (microbubble drug delivery system loading paclitaxel PTX@MB) and a control group (microbubble without loaded drugs MB) are deaerated to burst bubbles. Each solution is added to U87MG cells to respectively set final concentrations to 10%, 1%, 0.1%, 0.01%, and 0.001% and final concentrations of free paclitaxel are respectively set to 100 μM, 10 μM, 1 μM, 0.1 μM, and 0.01 μM. 5000 cells are grown in each well and cells are cultured for 72 hours. Then, a solution containing a cell culture fluid and tetrazolium salt derivatives are added to measure cell viability and in-vitro cytotoxicity of each material is identified."}
{"smiles": "CC(=O)O[C@H]1C(=O)[C@@]2(C)[C@H]([C@H](OC(=O)c3ccccc3)[C@]3(O)C[C@H](OC(=O)[C@H](O)[C@@H](NC(=O)c4ccccc4)c4ccccc4)C(C)=C1C3(C)C)[C@]1(OC(C)=O)CO[C@@H]1C[C@@H]2O", "note": "[free paclitaxel, Paclitaxel]", "values": [{"measurement": "concentration at which cytotoxicity is identified", "result": "above 1 μM"}]}
